Biological target: human IRAK4 (Homo sapiens (Human), UniProt Q9NWZ3)
Test: IRAK4 kinase inhibition, Transcreener fluorescence polarization (ADP)
Format: biochemical
Settings: recombinant full-length His6-IRAK4 1.25 nM; 125 uM ATP; 125 uM peptide; 90 min; ATP Km 642 uM; read-out: IRAK4 Ki
Outline: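 The enzyme was full-length human IRAK4 with an N-terminal His6 tag, expressed in insect cells. Kinase activity was read as ADP product by Transcreener fluorescence polarization.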

Sequence of human IRAK4 (Q9NWZ3 whole entry): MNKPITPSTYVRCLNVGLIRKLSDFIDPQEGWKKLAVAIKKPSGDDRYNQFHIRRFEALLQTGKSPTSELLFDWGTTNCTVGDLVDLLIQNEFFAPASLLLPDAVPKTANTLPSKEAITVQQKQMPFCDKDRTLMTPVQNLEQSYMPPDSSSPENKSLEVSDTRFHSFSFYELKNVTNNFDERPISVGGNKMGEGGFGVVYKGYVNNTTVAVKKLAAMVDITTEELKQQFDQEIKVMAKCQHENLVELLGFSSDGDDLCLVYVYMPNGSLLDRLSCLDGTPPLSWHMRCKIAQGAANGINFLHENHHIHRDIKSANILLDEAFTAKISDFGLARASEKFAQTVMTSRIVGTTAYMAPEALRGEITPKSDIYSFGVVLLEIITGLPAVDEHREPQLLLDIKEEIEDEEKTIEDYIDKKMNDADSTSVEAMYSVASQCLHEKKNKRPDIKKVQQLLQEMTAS

SMILES | Ki [nM]
CC(C)(O)[C@H](F)CN1Cc2cc(NC(=O)c3cnn4cccnc34)c(N3CCC(CC(F)F)CC3)cc2C1=O [Example 96, (R)-N-(6-(4-(2,2-Difluoroethyl)piperidin-1-yl)-2-(2-fluoro-3-hydroxy-3-methylbutyl)-1-oxoisoindolin-5-yl)pyrazolo[1,5-a]pyrimidine-3-carboxamide] | 1.5
CC(C)N1Cc2cc(NC(=O)c3cnn4cccnc34)c(C3CC3)cc2C1=O [Example 97, N-(6-Cyclopropyl-2-isopropyl-1-oxoisoindolin-5-yl)pyrazolo[1,5-a]pyrimidine-3-carboxamide] | 5.2
CC(C)(O)[C@H](F)CN1Cc2cc(NC(=O)c3cnn4cccnc34)c(C#N)cc2C1=O [Example 98, (R)—N-(6-Cyano-2-(2-fluoro-3-hydroxy-3-methylbutyl)-1-oxoisoindolin-5-yl)pyrazolo[1,5-a]pyrimidine-3-carboxamide] | 8.5
CC(C)(O)[C@H](F)CN1Cc2cc(NC(=O)c3cnn4cccnc34)c(N3CCN4CCC[C@@H]4C3)cc2C1=O [Example 100, N-(2-((R)-2-Fluoro-3-hydroxy-3-methylbutyl)-6-((R)-hexahydropyrrolo[1,2-a]pyrazin-2(1H)-yl)-1-oxoisoindolin-5-yl)pyrazolo[1,5-a]pyrimidine-3-carboxamide] | 1.8
CO[C@@H]1C[C@H]2CN(c3cc4c(cc3NC(=O)c3cnn5cccnc35)CN(C[C@@H](F)C(C)(C)O)C4=O)CCN2C1 [Example 101, N-(2-((R)-2-Fluoro-3-hydroxy-3-methylbutyl)-6-((7R,8aS)-7-methoxyhexahydropyrrolo[1,2-a]pyrazin-2(1H)-yl)-1-oxoisoindolin-5-yl)pyrazolo[1,5-a]pyrimidine-3-carboxamide] | 12
CC(C)(O)[C@H](F)CN1Cc2cc(NC(=O)c3cnn4ccc(Cl)nc34)c(N3CCOCC3)cc2C1=O [Example 102, (R)-5-Chloro-N-(2-(2-fluoro-3-hydroxy-3-methylbutyl)-6-morpholino-1-oxoisoindolin-5-yl)pyrazolo[1,5-a]pyrimidine-3-carboxamide] | 6.5
CCc1oncc1CN1CCN(c2cc3c(cc2NC(=O)c2cnn4cccnc24)CN(C[C@@H](F)C(C)(C)O)C3=O)CC1 [Example 103, (R)-N-(6-(4-((5-Ethylisoxazol-4-yl)methyl)piperazin-1-yl)-2-(2-fluoro-3-hydroxy-3-methylbutyl)-1-oxoisoindolin-5-yl)pyrazolo[1,5-a]pyrimidine-3-carboxamide] | 5.4
CCc1nocc1CN1CCN(c2cc3c(cc2NC(=O)c2cnn4cccnc24)CN(C[C@@H](F)C(C)(C)O)C3=O)CC1 [Example 104, (R)-N-(6-(4-((3-Ethylisoxazol-4-yl)methyl)piperazin-1-yl)-2-(2-fluoro-3-hydroxy-3-methylbutyl)-1-oxoisoindolin-5-yl)pyrazolo[1,5-a]pyrimidine-3-carboxamide] | 5
CC(C)(O)[C@H](F)CN1Cc2cc(NC(=O)c3cnn4cccnc34)c(N3CCN(C4COC4)CC3)cc2C1=O [Example 105, (R)-N-(2-(2-Fluoro-3-hydroxy-3-methylbutyl)-6-(4-(oxetan-3-yl)piperazin-1-yl)-1-oxoisoindolin-5-yl)pyrazolo[1,5-a]pyrimidine-3-carboxamide] | 3.4
CC(C)(O)[C@H](F)CN1Cc2cc(NC(=O)c3cnn4cccnc34)c(N3CCN(CCn4ccnc4)CC3)cc2C1=O [Example 106, (R)-N-(6-(4-(2-(1H-Imidazol-1-yl)ethyl)piperazin-1-yl)-2-(2-fluoro-3-hydroxy-3-methylbutyl)-1-oxoisoindolin-5-yl)pyrazolo[1,5-a]pyrimidine-3-carboxamide] | 2.1
CO[C@@H]1C[C@@H]2CN(c3cc4c(cc3NC(=O)c3cnn5cccnc35)CN(C[C@@H](F)C(C)(C)O)C4=O)CCN2C1 [Example 107, N-(2-((R)-2-Fluoro-3-hydroxy-3-methylbutyl)-6-((7R,8aR)-7-methoxyhexahydropyrrolo[1,2-a]pyrazin-2(1H)-yl)-1-oxoisoindolin-5-yl)pyrazolo[1,5-a]pyrimidine-3-carboxamide] | 6.5
CO[C@H]1C[C@@H]2CN(c3cc4c(cc3NC(=O)c3cnn5cccnc35)CN(C[C@@H](F)C(C)(C)O)C4=O)CCN2C1 [Example 108, N-(2-((R)-2-Fluoro-3-hydroxy-3-methylbutyl)-6-((7S,8aR)-7-methoxyhexahydropyrrolo[1,2-a]pyrazin-2(1H)-yl)-1-oxoisoindolin-5-yl)pyrazolo[1,5-a]pyrimidine-3-carboxamide] | 1.3
CC(C)(O)[C@H](F)CN1Cc2cc(NC(=O)c3cnn4cccnc34)c(N3CCN(CC(F)(F)F)CC3)cc2C1=O [Example 109, (R)-N-(2-(2-Fluoro-3-hydroxy-3-methylbutyl)-1-oxo-6-(4-(2,2,2-trifluoroethyl)piperazin-1-yl)isoindolin-5-yl)pyrazolo[1,5-a]pyrimidine-3-carboxamide] | 2.6
C[C@H]1C[C@@H]2CN(c3cc4c(cc3NC(=O)c3cnn5cccnc35)CN(C[C@@H](F)C(C)(C)O)C4=O)CCN2C1 [Example 110, N-[6-[(7S,8aR)-7-Methyl-3,4,6,7,8,8a-hexahydro-1H-pyrrolo[1,2-a]pyrazin-2-yl]-2-[(2R)-2-fluoro-3-hydroxy-3-methyl-butyl]-1-oxo-isoindolin-5-yl]pyrazolo[1,5-a]pyrimidine-3-carboxamide] | 7.5
COCCN1CCN(c2cc3c(cc2NC(=O)c2cnn4cccnc24)CN(C[C@@H](F)C(C)(C)O)C3=O)CC1 [Example 112, (R)-N-(2-(2-Fluoro-3-hydroxy-3-methylbutyl)-6-(4-(2-methoxyethyl)piperazin-1-yl)-1-oxoisoindolin-5-yl)pyrazolo[1,5-a]pyrimidine-3-carboxamide] | 2.6
CC(C)N1CCN(c2cc3c(cc2NC(=O)c2cnn4cccnc24)CN(C[C@@H](F)C(C)(C)O)C3=O)CC1 [Example 113, (R)-N-(2-(2-Fluoro-3-hydroxy-3-methylbutyl)-6-(4-isopropylpiperazin-1-yl)-1-oxoisoindolin-5-yl)pyrazolo[1,5-a]pyrimidine-3-carboxamide] | 7.5
CC(=O)Nc1ccn2ncc(C(=O)Nc3cc4c(cc3N(C)C)C(=O)N(C[C@@H](F)C(C)(C)O)C4)c2n1 [Example 131, (R)-5-Acetamido-N-(6-(dimethylamino)-2-(2-fluoro-3-hydroxy-3-methylbutyl)-1-oxoisoindolin-5-yl)pyrazolo[1,5-a]pyrimidine-3-carboxamide] | 6.4
CN(C)c1cc2c(cc1NC(=O)c1cnn3ccc(C(=O)NC4CC4)nc13)CN(C[C@@H](F)C(C)(C)O)C2=O [Example 132, (R)—N^5-Cyclopropyl-N^3-(6-(dimethylamino)-2-(2-fluoro-3-hydroxy-3-methylbutyl)-1-oxoisoindolin-5-yl)pyrazolo[1,5-a]pyrimidine-3,5-dicarboxamide] | 19
CC(C)(O)[C@H](F)CN1Cc2cc(NC(=O)c3cnn4cc(O)cnc34)c(N3CCOCC3)cc2C1=O [Example 133, (R)—N-(2-(2-Fluoro-3-hydroxy-3-methylbutyl)-6-morpholino-1-oxoisoindolin-5-yl)-6-hydroxypyrazolo[1,5-a]pyrimidine-3-carboxamide] | 5.7
CC(C)(O)[C@H](F)CN1Cc2cc(NC(=O)c3cnn4cccnc34)c(OCC(F)(F)F)cc2C1=O [Example 135, (R)—N-(2-(2-Fluoro-3-hydroxy-3-methylbutyl)-1-oxo-6-(2,2,2-trifluoroethoxy)isoindolin-5-yl)pyrazolo[1,5-a]pyrimidine-3-carboxamide] | 0.63
Cc1ccc(-c2cc3c(cc2NC(=O)c2cnn4cccnc24)CC(C)(C)O3)nc1 [Example 145, N-[2,2-Dimethyl-6-(5-methyl-2-pyridyl)-3H-benzofuran-5-yl]pyrazolo[1,5-a]pyrimidine-3-carboxamide] | 60
Cc1ccc(-c2cc3c(cc2NC(=O)c2cnn4cccnc24)CN(C[C@@H](F)C(C)(C)O)C3=O)nc1 [Example 146, (R)-N-(2-(2-Fluoro-3-hydroxy-3-methylbutyl)-6-(5-methylpyridin-2-yl)-1-oxoisoindolin-5-yl)pyrazolo[1,5-a]pyrimidine-3-carboxamide] | 8.1
CC(C)(O)[C@H](F)CN1Cc2cc(NC(=O)c3cnn4cccnc34)c(C3COC3)cc2C1=O [Example 147, N-[2-[(2R)-2-Fluoro-3-hydroxy-3-methyl-butyl]-6-(oxetan-3-yl)-1-oxo-isoindolin-5-yl]pyrazolo[1,5-a]pyrimidine-3-carboxamide] | 48
CC(C)(O)c1cc2c(cc1NC(=O)c1cnn3cccnc13)CN(C[C@@H](F)C(C)(C)O)C2=O [Example 148, (R)—N-(2-(2-Fluoro-3-hydroxy-3-methylbutyl)-6-(2-hydroxypropan-2-yl)-1-oxoisoindolin-5-yl)pyrazolo[1,5-a]pyrimidine-3-carboxamide] | 16
CC(C)N1Cc2cc(NC(=O)c3cnn4cccnc34)c(N(C)C)c(CO)c2C1=O [Example 151, N-(6-(Dimethylamino)-7-(hydroxymethyl)-2-isopropyl-1-oxoisoindolin-5-yl)pyrazolo[1,5-a]pyrimidine-3-carboxamide] | 8.2
Cn1ccc2cc(NC(=O)c3cnn4cccnc34)c(N3CCOCC3)cc2c1=O [Example 152, N-(2-Methyl-7-morpholino-1-oxo-1,2-dihydroisoquinolin-6-yl)pyrazolo[1,5-a]pyrimidine-3-carboxamide] | 210
O=C(Nc1cc2c(cc1N1CCOCC1)OCCS2)c1cnn2cccnc12 [Example 153, N-(7-Morpholino-2,3-dihydro-1,4-benzoxathiin-6-yl)pyrazolo[1,5-a]pyrimidine-3-carboxamide] | 280
CN(C)c1cc2c(cc1NC(=O)c1cnn3cccnc13)CC(C)(C)[C@H]2O [Example 156, N-[(1R)-6-(Dimethylamino)-1-hydroxy-2,2-dimethyl-indan-5-yl]pyrazolo[1,5-a]pyrimidine-3-carboxamide] | 16

From patent US11034698B2, “Pyrazolo[ 1,5a]pyrimidine derivatives as IRAK4 modulators” (priority 2017, dated 2021)
